Results on 58 compounds are retold here after ChEMBL document CHEMBL5728348, “1 H-pyrazol-1-yl-thiazoles as inhibitors of lactate dehydrogenase and methods of use thereof” (2021).

Some results are limits rather than exact numbers.

This test can be described thus: Biochemical Assay: Test compounds were placed in a Greiner Bio-One (Monroe, N.C.) 1536-well black solid bottom assay plate. 200 millimolar (mM) Tris HCl, pH 7.4, 100 micromolar (μM) EDTA and 0.01% TWEEN-20, final concentration, was used as the assay buffer. The LDHA reagent was 2 nanomolar (nM) Human LDHA (Meridian Life Science, Inc., Memphis, Tenn.), final concentration, in assay buffer. The substrate reagent was 0.06 mM NADH and 0.2 mM sodium pyruvate, final concentration, in assay buffer. The resazurin/diaphorase coupling reagent was 0.037 mM resazurin and 0.133 milligrams per milliliter (mg/mL) diaphorase, final concentration, in assay buffer. The inhibition of LDHA activity was measured by fluorescence emission. Background: The colour change of resazurin is a common sign of viable cells or microbes.

As usually defined, the IC50 is the point on the concentration scale where inhibition reaches its midpoint. A high value points to a need for much substance.

As to `Cc1ccsc1C#Cc1cccc(-c2nn(-c3nc(C(=O)O)cs3)c(CC3CC3)c2Cc2ccc([SH+](N)[O-])c(F)c2)c1` (stereo not drawn), the IC50 was less than 100 nM.
With `N[S+](=O)([O-])c1ccc(Cc2c(-c3ccc(F)c(-c4ccc(C(F)(F)F)cc4)c3)nn(-c3nc(C(=O)O)cs3)c2CC2CC2)cc1F` the figure was less than 100 nM; with `N[SH+]([O-])c1ccc(Cc2c(-c3cccc(-c4ccc(Cl)cc4)c3)nn(-c3nc(C(=O)O)cs3)c2CC2CC2)cc1F` (stereo not drawn), less than 100 nM; with `N[S+](=O)([O-])c1ccc(Cc2c(-c3ccc(F)c(-c4ccc5c(c4)CCC5)c3)nn(-c3nc(C(=O)O)cs3)c2CC2CC2)cc1F`, less than 100 nM.
With `COc1ccc(-c2cc(-c3nn(-c4nc(C(=O)O)cs4)c(CC4CC4)c3Cc3ccc([SH+](N)[O-])c(F)c3)ccc2F)cc1C` (stereo not drawn) the figure was less than 100 nM; with `COc1cc(OC)cc(-c2cc(-c3nn(-c4nc(C(=O)O)cs4)c(CC4CC4)c3Cc3ccc([SH+](N)[O-])c(F)c3)ccc2F)c1` (stereo not drawn), less than 100 nM.
The compound `Cc1ccc(-c2cc(-c3nn(-c4nc(C(=O)O)cs4)c(CC4CC4)c3Cc3ccc([SH+](N)[O-])c(F)c3)ccc2F)cc1F` (stereo not drawn) displayed an IC50 of less than 100 nM.
With `NS(=O)(=O)c1ccc(Cc2c(-c3cccc(-c4nc5ccccc5[nH]4)c3)nn(-c3nc(C(=O)O)cs3)c2CC2CC2)cc1F` the figure was less than 100 nM; with `CN(C)c1ccc(-c2cccc(-c3nn(-c4nc(C(=O)O)cs4)c(CC4CC4)c3Cc3ccc([SH+](N)[O-])c(F)c3)c2)cc1` (stereo not drawn), less than 100 nM; with `CC(C)c1ccc(C#Cc2cccc(-c3nn(-c4nc(C(=O)O)cs4)c(CC4CC4)c3Cc3ccc([SH+](N)[O-])c(F)c3)c2)s1` (stereo not drawn), “in the range around 550 nM”.
With `Cc1ncc(-c2cc(-c3nn(-c4nc(C(=O)O)cs4)c(CC4CC4)c3Cc3ccc([SH+](N)[O-])c(F)c3)ccc2F)[nH]1` (stereo not drawn) the figure was less than 100 nM.
Compound `N[S+](=O)([O-])c1ccc(Cc2c(-c3ccc(F)c(C4=CCCCC4)c3)nn(-c3nc(C(=O)O)cs3)c2CC2CC2)cc1F` had an IC50 of less than 100 nM.
For the compound `N[S+](=O)([O-])c1ccc(Cc2c(-c3ccc(F)c(-c4cc(F)cc(F)c4)c3)nn(-c3nc(C(=O)O)cs3)c2CC2CC2)cc1F`, the IC50 was less than 100 nM.
With `Cc1ccc(C#Cc2cccc(-c3nn(-c4nc(C(=O)O)cs4)c(CCC4CC4)c3Cc3ccc([SH+](N)[O-])c(F)c3)c2)s1` (stereo not drawn) the figure was less than 100 nM.
With `CC(C)c1ccc(-c2cccc(-c3nn(-c4nc(C(=O)O)cs4)c(CCC4CC4)c3Cc3ccc([S+](N)(=O)[O-])c(F)c3)c2)cc1` the entry was “in the range around 550 nM”.
With `N[SH+]([O-])c1ccc(Cc2c(-c3cccc(-c4ccc(C5CC5)c(F)c4)c3)nn(-c3nc(C(=O)O)cs3)c2CC2CC2)cc1F` (stereo not drawn) the entry was “in the range around 29000 nM”; with `Cc1ccc(C#Cc2cc(-c3nn(-c4nc(C(=O)O)cs4)c(CC4CC4)c3Cc3ccc([SH+](N)[O-])c(F)c3)ccc2F)s1` (stereo not drawn), less than 100 nM; with `Cc1ccc([C@H]2C[C@@H](c3cccc(-c4nn(-c5nc(C(=O)O)cs5)c(CC5CC5)c4Cc4ccc([SH+](N)[O-])c(F)c4)c3)C2)s1` (stereo partly drawn), less than 100 nM.
In the case of `Cc1ccc(C#Cc2cc(-c3nn(-c4nc(C(=O)O)cs4)c(CCC4CC4)c3Cc3ccc([SH+](N)[O-])c(F)c3)ccc2F)s1` (stereo not drawn), the IC50 is less than 100 nM.
With `CC(C)c1ccc(-c2cccc(-c3nn(-c4nc(C(=O)O)cs4)c(CC4CC4)c3Cc3ccc([SH+](N)[O-])c(F)c3)c2)cc1` (stereo not drawn) the figure was less than 100 nM.
`Cc1ccc(/C=C/c2cccc(-c3nn(-c4nc(C(=O)O)cs4)c(CC4CC4)c3Cc3ccc([SH+](N)[O-])c(F)c3)c2)s1` (stereo not drawn) gave an IC50 of less than 100 nM.
`Cc1ccc(C#Cc2cccc(-c3nn(-c4nc(C(=O)O)cs4)c(CC4(C)CC4)c3Cc3ccc([SH+](N)[O-])c(F)c3)c2)s1` (stereo not drawn) came in with an IC50 of less than 100 nM.
With `N[S+](=O)([O-])c1ccc(Cc2c(-c3ccc(F)c(C4=Cc5ccccc5C4)c3)nn(-c3nc(C(=O)O)cs3)c2CC2CC2)cc1F` the figure was less than 100 nM; with `Cc1ccc(C#Cc2cccc(-c3nn(-c4nc(C(=O)O)cs4)c(C4CC45CC5)c3Cc3ccc([SH+](N)[O-])c(F)c3)c2)s1` (stereo not drawn), less than 100 nM.
With `Cc1ccc(C#Cc2cccc(-c3nn(-c4nc(CO)cs4)c(CC4CC4)c3Cc3ccc([SH+](N)[O-])c(F)c3)c2)s1` (stereo not drawn) the figure was greater than 57000 nM; with `N[SH+]([O-])c1ccc(Cc2c(-c3ccc(F)c(NC(=O)c4ccccc4)c3)nn(-c3nc(C(=O)O)cs3)c2CC2CC2)cc1F` (stereo not drawn), less than 100 nM; with `N[SH+]([O-])c1ccc(Cc2c(-c3cccc(-c4cccc(Cl)c4)c3)nn(-c3nc(C(=O)O)cs3)c2CC2CC2)cc1F` (stereo not drawn), less than 100 nM.
With `N[SH+]([O-])c1ccc(Cc2c(-c3cccc(-c4cc(F)cc(F)c4)c3)nn(-c3nc(C(=O)O)cs3)c2CC2CC2)cc1F` (stereo not drawn) the figure was less than 100 nM; with `Cc1ccc(C#Cc2cccc(-c3nn(-c4nc(C(N)=O)cs4)c(CC4CC4)c3Cc3ccc([SH+](N)[O-])c(F)c3)c2)s1` (stereo not drawn), “in the range around 29000 nM”.
Turning to `N[S+](=O)([O-])c1ccc(Cc2c(-c3ccc(F)c(-c4ccc(Cl)cc4)c3)nn(-c3nc(C(=O)O)cs3)c2CC2CC2)cc1F`, the IC50 is less than 100 nM.
In turn, `Cc1cc(C)c(C#Cc2cccc(-c3nn(-c4nc(C(=O)O)cs4)c(CC4CC4)c3Cc3ccc([SH+](N)[O-])c(F)c3)c2)s1` (stereo not drawn) gave an IC50 of less than 100 nM.
With `N[S+](=O)([O-])c1ccc(Cc2c(-c3ccc(F)c(C4=CCC(F)(F)CC4)c3)nn(-c3nc(C(=O)O)cs3)c2CC2CC2)cc1F` the figure was less than 100 nM; with `Cc1cnc(C#Cc2cccc(-c3nn(-c4nc(C(=O)O)cs4)c(CC4CC4)c3Cc3ccc([SH+](N)[O-])c(F)c3)c2)o1` (stereo not drawn), less than 100 nM; with `CC1(C)CC=C(c2cc(-c3nn(-c4nc(C(=O)O)cs4)c(CC4CC4)c3Cc3ccc([SH+](N)[O-])c(F)c3)ccc2F)CC1` (stereo not drawn), less than 100 nM.
With `Cc1ccc(C2CC2c2cccc(-c3nn(-c4nc(C(=O)O)cs4)c(CC4CC4)c3Cc3ccc([SH+](N)[O-])c(F)c3)c2)s1` (stereo not drawn) the figure was less than 100 nM; with `Cc1ccc(C#Cc2cccc(-c3nn(-c4nc(C(=O)O)cs4)c(CC4CC4)c3Cc3ccc([SH+](N)[O-])c(F)c3)c2)o1` (stereo not drawn), less than 100 nM; with `CC(C)(C)c1ccc(-c2cccc(-c3nn(-c4nc(C(=O)O)cs4)c(CC4CC4)c3Cc3ccc([SH+](N)[O-])c(F)c3)c2)cc1` (stereo not drawn), “in the range around 550 nM”.
The compound `Cc1cnc(C#Cc2cc(-c3nn(-c4nc(C(=O)O)cs4)c(CC4CC4)c3Cc3ccc([SH+](N)[O-])c(F)c3)ccc2F)s1` (stereo not drawn) gave an IC50 of less than 100 nM.
With `CC(C)Cc1ccc(-c2cccc(-c3nn(-c4nc(C(=O)O)cs4)c(CCC4CC4)c3Cc3ccc([S+](N)(=O)[O-])c(F)c3)c2)cc1` the entry was “in the range around 550 nM”.
With `CC(C)c1cccc(-c2cccc(-c3nn(-c4nc(C(=O)O)cs4)c(CC4CC4)c3Cc3ccc([SH+](N)[O-])c(F)c3)c2)c1` (stereo not drawn) the figure was less than 100 nM; with `N[SH+]([O-])c1ccc(Cc2c(-c3cccc(-c4ccc(Cl)c(F)c4)c3)nn(-c3nc(C(=O)O)cs3)c2CC2CC2)cc1F` (stereo not drawn), less than 100 nM; with `Cc1ncc(C#Cc2cc(-c3nn(-c4nc(C(=O)O)cs4)c(CC4CC4)c3Cc3ccc([SH+](N)[O-])c(F)c3)ccc2F)s1` (stereo not drawn), less than 100 nM.
`N[SH+]([O-])c1ccc(Cc2c(-c3cccc(C#Cc4ccc(C(F)(F)F)s4)c3)nn(-c3nc(C(=O)O)cs3)c2CC2CC2)cc1F` (stereo not drawn): the IC50 entry was “in the range around 550 nM”.
With `CC(=O)c1cc(-c2nn(-c3nc(C(=O)O)cs3)c(CC3CC3)c2Cc2ccc([SH+](N)[O-])c(F)c2)ccc1F` (stereo not drawn) the figure was less than 100 nM.
With `CC(C)(C)c1ccc(C#Cc2cc(-c3nn(-c4nc(C(=O)O)cs4)c(CC4CC4)c3Cc3ccc([SH+](N)[O-])c(F)c3)ccc2F)s1` (stereo not drawn) the entry was “in the range around 550 nM”.
With `N[S+](=O)([O-])c1ccc(Cc2c(-c3cccc(-c4ccc(C(F)(F)C(F)(F)F)cc4)c3)nn(-c3nc(C(=O)O)cs3)c2CCC2CC2)cc1F` the entry was “in the range around 550 nM”; with `N#Cc1ccc(-c2cccc(-c3nn(-c4nc(C(=O)O)cs4)c(CC4CC4)c3Cc3ccc([SH+](N)[O-])c(F)c3)c2)cc1` (stereo not drawn), less than 100 nM.
On to `N[S+](=O)([O-])c1ccc(Cc2c(-c3ccc(F)c(-c4cccc(Cl)c4)c3)nn(-c3nc(C(=O)O)cs3)c2CC2CC2)cc1F`, for which the IC50 was less than 100 nM.
With `Cc1ccc(C#Cc2cccc(-c3nn(-c4nc(C(=O)NC#N)cs4)c(CC4CC4)c3Cc3ccc([SH+](N)[O-])c(F)c3)c2)s1` (stereo not drawn) the entry was “in the range around 29000 nM”; with `N[S+](=O)([O-])c1ccc(Cc2c(-c3ccc(F)c(C4=CCC5(CC4)CC5)c3)nn(-c3nc(C(=O)O)cs3)c2CC2CC2)cc1F`, less than 100 nM; with `CC1CC=C(c2cc(-c3nn(-c4nc(C(=O)O)cs4)c(CC4CC4)c3Cc3ccc([SH+](N)[O-])c(F)c3)ccc2F)CC1` (stereo not drawn), less than 100 nM.
With `N[SH+]([O-])c1ccc(Cc2c(-c3cccc(C#Cc4ccc(C(F)F)s4)c3)nn(-c3nc(C(=O)O)cs3)c2CC2CC2)cc1F` (stereo not drawn) the figure was less than 100 nM; with `N[S+](=O)([O-])c1ccc(Cc2c(-c3ccc(F)c(C4=CCC(C(F)(F)F)CC4)c3)nn(-c3nc(C(=O)O)cs3)c2CC2CC2)cc1F` (stereo not drawn), less than 100 nM; with `N[S+](=O)([O-])c1ccc(Cc2c(-c3ccc(F)c(-c4ccc(F)c(F)c4)c3)nn(-c3nc(C(=O)O)cs3)c2CC2CC2)cc1F`, less than 100 nM.
With `N[SH+]([O-])c1ccc(Cc2c(-c3cccc(C#Cc4ccc(C5CC5)s4)c3)nn(-c3nc(C(=O)O)cs3)c2CC2CC2)cc1F` (stereo not drawn) the entry was “in the range around 550 nM”; with `N[S+](=O)([O-])c1ccc(Cc2c(-c3ccc(F)c(-c4ncc[nH]4)c3)nn(-c3nc(C(=O)O)cs3)c2CC2CC2)cc1F`, less than 100 nM.
`Cc1ccc(C#Cc2cccc(-c3nn(-c4nc(C(=O)O)cs4)c(CC4CC4)c3Cc3ccc([SH+](N)[O-])c(F)c3)c2)s1` (stereo not drawn) returned an IC50 of less than 100 nM.
With `N[S+](=O)([O-])c1ccc(Cc2c(-c3ccc(F)c(-c4ccc5c(c4)CCCC5)c3)nn(-c3nc(C(=O)O)cs3)c2CC2CC2)cc1F` the figure was less than 100 nM.
